What all share (type): cell-based, human
Assay [1] deals with phSC cells. Kind of assay: Cell stiffness measurement by atomic force microscopy (AFM). The procedure:
Cell stiffness measurement: SC cells were seeded on coverslips and grown to confluence. An MFD-3D AFM (Asylum Research, Santa Barbara, CA, USA) was used to make stiffness measurements using silicon nitride cantilevers with an attached borosilicate sphere (diameter=10 μm; nominal spring constant=0.1 N/m; Novascan Technologies, Inc., Ames, IA, USA). […] The indentation depth was limited to 400 nm to avoid substrate effects and the tip velocity was adjusted to 800 nm/s to avoid viscous effects^37. 5 measurements/cell were conducted, and at least 5 cells were measured/cell strain. Data from AFM measurements were fitted to the Hertz model to calculate the Young's Modulus of the cells.

Assay [2] deals with phSC cells. The assay is described as follows: Particle-induced transcellular pore formation, fluorescent pore-label assay, cells seeded above microparticles. The procedure:
Substrate preparation and cell culture for transcellular pore formation using microparticles: Round cover glasses (12 mm in diameter) were employed for SEM imaging, while 16-well chambered cover glasses (16 wells per cover glass; Invitrogen C37000) were utilized for other experiments. Glass substrates underwent plasma treatment (Harrick Plasma, PDC-32G) for 2 minutes at high RF power and were immediately incubated at 37° C. with 0.5 mg/mL biotinylated gelatin for 24 hours. After three washes with PBS, the cover glasses were incubated with microbial transglutaminase (0.001 unit/mL in 20 mM Tris-HCl and 150 mM NaCl, pH 8; Sigma-Aldrich SAE0159) at 37° C. for 24 hours to crosslink the gelatin coating and enhance phSC cell attachment on the substrate. Following three additional washes with PBS, the cover glasses were UV sterilized in a biosafety cabinet for 1 hour. Carboxyl ferromagnetic particles (4.0-4.9 μm, Spherotech, Inc. CFM-40-10) were vortexed and added to the substrate. The particles were allowed to randomly sink onto the substrate to achieve an approximate density of 1 particle per 1000 μm^2. Non-adherent particles were removed by washing three times with PBS, followed by seeding phSC cells (passage 4-6; 7.5 k cells/cm^2). The cells were then cultured for 2 to 7 hours in DMEM supplemented with 1% FBS and 1×PSG at 37° C. with 5% CO2. The culture time was chosen as the minimum duration necessary for the cells to adopt a spread configuration similar to that observed in situ. Note that this culture time (2 to 7 hours) varied for the tested cell strains. Alternatively, in some experiments, apical-to-basal cell stretching was achieved by adding particles above fully spread cells. High-content screening of transcellular pores: Upon achieving full cell spreading over particles, cells were incubated with the first pore label for 5 minutes, followed by three washes with cell media. Subsequently, cells were either exposed to a magnetic field (as detailed below) or incubated solely with cell media for 10 minutes. Afterward, the cells were incubated with the second pore label (5 μg/mL; Streptavidin, Alexa Fluor 647 Conjugate, Invitrogen S32357) for 5 minutes, all at 37° C. The cells were then immediately washed three times with PBS, fixed with 4% formaldehyde for 15 minutes at room temperature, washed three times with PBS, permeabilized with 0.1% Triton X for 15 minutes, and stained with NucBlue Fixed Cell Ready Probes Reagent (6 drops/mL; Invitrogen R37606) and Alexa Fluor 555 Phalloidin (0.165 μM; Invitrogen R34055) for 1 hour at room temperature. Following these steps, cells were washed three times with PBS, the cover glass was detached from the rest of the 16-well chambered system, mounted on another cover glass using Prolong Gold Antifade Mountant (Invitrogen P10144), and stored in the dark until examination with a Leica DM6 B upright microscope system. Fluorescent and brightfield images were acquired using a 10× objective to generate tile scans for each well. To exclude cells near the well edges, a 4 mm diameter circle was delineated at the center of each image, and the analysis was restricted to the cells within this 4 mm circle. The number of cells, particles beneath cells, and pores were manually counted. Pores incidence rate was quantified as the number of pores associated with particles divided by the number of particles, multiplied by 100. […]

In assay [3] the test system is phSC cells. Kind of assay: Cell area after treatment (fluorescent images of actin network and nuclei). The note with it: Y-27632 treatments; nSC74, nSC75, nSC82, nSC89; 2-way ANOVA; FIGS. 12A-12B. Here is the method: Treatment with Y-27632 ROCK inhibitor: Cells were seeded above microparticles in 16-well chambered slides in DMEM supplemented with 10% FBS, 1×PSG and allowed to spread for 3.5 hours at 37° C. with 5% CO2. Subsequently, the cells were incubated with 10 μM Y-27632 (Sigma, Y0503) in DMEM supplemented with 1% FBS, 1×PSG for 30 minutes, followed by the first pore label for 5 minutes. Following incubation, the cells were washed, fixed, stained for nuclei and actin filaments, and imaged as described in the section titled “High-content screening of transcellular pores.”

Assay [4] has as its system phSC cells. The assay is described as follows: Transcellular pore detection with particles placed on top of cells (apical-to-basal deformation). The note with it: 10 μM, instead of magnetic field, FIGS. 14A-14B. Here is the method: Substrate preparation and cell culture for transcellular pore formation using microparticles: Round cover glasses (12 mm in diameter) were employed for SEM imaging, while 16-well chambered cover glasses (16 wells per cover glass; Invitrogen C37000) were utilized for other experiments. Glass substrates underwent plasma treatment (Harrick Plasma, PDC-32G) for 2 minutes at high RF power and were immediately incubated at 37° C. with 0.5 mg/mL biotinylated gelatin for 24 hours. After three washes with PBS, the cover glasses were incubated with microbial transglutaminase (0.001 unit/mL in 20 mM Tris-HCl and 150 mM NaCl, pH 8; Sigma-Aldrich SAE0159) at 37° C. for 24 hours to crosslink the gelatin coating and enhance phSC cell attachment on the substrate. […]
High-content screening of transcellular pores: Upon achieving full cell spreading over particles, cells were incubated with the first pore label for 5 minutes, followed by three washes with cell media. […] The cells were then immediately washed three times with PBS, fixed with 4% formaldehyde for 15 minutes at room temperature, washed three times with PBS, permeabilized with 0.1% Triton X for 15 minutes, and stained with NucBlue Fixed Cell Ready Probes Reagent (6 drops/mL; Invitrogen R37606) and Alexa Fluor 555 Phalloidin (0.165 μM; Invitrogen R34055) for 1 hour at room temperature. […]

Where [5] appears, read: primary human SC cells, summary statement without cell strain.

“Also recorded” adds a separate entry of the source.

Take `CCCCCCCCCCCCC/C=C/[C@@H](O)[C@@H](N)COP(=O)(O)O` [SIP, sphingosine-1-phosphate]: the cell stiffness entry is “did not have a significant effect; also recorded: did not affect” with phSC cells [1] (SIP treatment, nSC74, FIG. 13A); “increased cell stiffness; also recorded: significant increase” with phSC cells [1] (SIP treatment, nSC75 and nSC89, FIG. 13A). Besides, the pore formation result with phSC cells [2] (SIP treatment, nSC74, FIG. 13B) is given as “did not have a significant effect; also recorded: did not affect”; in the assay with phSC cells [2] (SIP treatment, nSC75 and nSC89, FIG. 13B), “decreased pore formation; also recorded: decrease”; in the assay on phSC cells [2] (setting [5]) it was “decreased pore formation”.
Take `C[C@@H](N)[C@H]1CC[C@H](C(=O)Nc2ccncc2)CC1` [Y-27632]: the cell stiffness result with phSC cells [1] (Y-27632 treatment, four normal cell strains nSC74, nSC75, nSC82, nSC89, FIG. 6C) is “decreased cell stiffness”. Moreover, the cell area entry with phSC cells [3] is listed as “did not significantly affect; also recorded: no significant effect”. Further, in the assay with phSC cells [2] (Y-27632 treatment, four normal cell strains nSC74, nSC75, nSC82, nSC89, FIG. 6D), the particle-induced pore formation result is listed as “increased pore formation in a dose-dependent manner”. The pore formation result with phSC cells [2] (setting [5]) is recorded as “increased pore formation”. The “transcellular pores at particle locations” value in the assay with phSC cells [4] is on record as “did not induce transcellular pores; also recorded: failed to induce transcellular pores”.
